Test results from article PMC11148045, “Structural basis for recognition of 26RFa by the pyroglutamylated RFamide peptide receptor” (Cell Discovery, 2024).
No end group written: not given here.

Legend:
Assay in all cases: 26RFa-induced calcium mobilization, receptor mutants
QRFPR mutants [1] = biological target: T1, QRFPR mutants (Homo sapiens, UniProt Q96P65, Q211A); type: cell-based; details: HEK293, QRFPR Q211^5.35A; HEK293, Fluo-4; mean ± S.E.M., n ≥ 3
T1 construct: expressed in transfected cells; host or cells: HEK293, transient transfection by electroporation
Procedure: (§1) The gene encoding the WT QRFPR, PrPRR, KISS1R, NPFF1R, or NPFF2R was subcloned into the pcDNA3.0 vector with the addition of an N-terminal HA tag. All of the mutations used for functional studies were generated by QuickChange PCR and verified by DNA sequencing.
(§2) HEK293 cells were obtained from ATCC (Manassas, VA, USA) and cultured in DMEM supplemented with 10% (v/v) FBS, 100 mg/L penicillin, and 100 mg/L streptomycin in 5% CO2 at 37 °C. For transient transfection, ~2.5 × 10^6 cells were mixed with 2 µg plasmids in 200 µL transfection buffer, and electroporation was carried out with a Scientz-2C electroporation apparatus (Scientz Biotech, Ningbo, China). The experiments were carried out 24 h after transfection.
(§3) For QRFPR, PrRPR, and KISS1R, HEK293 cells transfected with WT receptor or its mutants were seeded at a density of 4 × 10^4 per well into 96-well culture plates and incubated for 24 h at 37 °C in 5% CO2. For NPFF1R and NPFF2R, plasmids were transfected into HEK293 cells stably expressing Gα16. On the next day, cells were incubated with 2 μmol/L Fluo-4 AM in HBSS supplemented with 5.6 mmol/L D-glucose and 250 μmol/L sulfinpyrazone at 37 °C for 45 min. After washing, cells were added with 50 μL HBSS and incubated at room temperature for 10 min, then 25 μL agonist buffer was dispensed into the well using a FlexStation III microplate reader (Molecular Devices), and intracellular calcium change was recorded at an excitation wavelength of 485 nm and an emission wavelength of 525 nm. EC50 and Emax values for each curve were calculated by Prism 8.0 software (GraphPad Software).

QRFPR mutants [2] = biological target: T2, QRFPR mutants (Homo sapiens, UniProt Q96P65, N110A); type: cell-based; details: HEK293, QRFPR N110^23.49A; HEK293, Fluo-4; mean ± S.E.M., n ≥ 3
T2 construct: expressed in transfected cells; host or cells: HEK293, transient transfection by electroporation
Procedure: as §1, §2, §3

QRFPR mutants [3] = biological target: T3, QRFPR mutants (Homo sapiens, UniProt Q96P65, D109A); type: cell-based; details: HEK293, QRFPR D109^2.67A; HEK293, Fluo-4; mean ± S.E.M., n ≥ 3
T3 construct: expressed in transfected cells; host or cells: HEK293, transient transfection by electroporation
Procedure: as §1, §2, §3

QRFPR mutants [4] = biological target: T4, QRFPR mutants (Homo sapiens, UniProt Q96P65, T102A); type: cell-based; details: HEK293, QRFPR T102^2.60A; HEK293, Fluo-4; mean ± S.E.M., n ≥ 3
T4 construct: expressed in transfected cells; host or cells: HEK293, transient transfection by electroporation
Procedure: as §1, §2, §3

QRFPR mutants [5] = biological target: T5, QRFPR mutants (Homo sapiens, UniProt Q96P65, M180A); type: cell-based; details: HEK293, QRFPR M180^4.60A; HEK293, Fluo-4; mean ± S.E.M., n ≥ 3
T5 construct: expressed in transfected cells; host or cells: HEK293, transient transfection by electroporation
Procedure: as §1, §2, §3

QRFPR mutants [6] = biological target: T6, QRFPR mutants (Homo sapiens, UniProt Q96P65); type: cell-based; details: HEK293, QRFPR Δ1-18; HEK293, Fluo-4; mean ± S.E.M., n ≥ 3
T6 construct: expressed in transfected cells; host or cells: HEK293, transient transfection by electroporation
Procedure: as §1, §2, §3

QRFPR mutants [7] = biological target: T7, QRFPR mutants (Homo sapiens, UniProt Q96P65, T215A); type: cell-based; details: HEK293, QRFPR T215^5.39A; HEK293, Fluo-4; mean ± S.E.M., n ≥ 3
T7 construct: expressed in transfected cells; host or cells: HEK293, transient transfection by electroporation
Procedure: as §1, §2, §3

QRFPR mutants [8] = biological target: T8, QRFPR mutants (Homo sapiens, UniProt Q96P65, I199A); type: cell-based; details: HEK293, QRFPR I199^ECL2A; HEK293, Fluo-4; mean ± S.E.M., n ≥ 3
T8 construct: expressed in transfected cells; host or cells: HEK293, transient transfection by electroporation
Procedure: as §1, §2, §3

QRFPR mutants [9] = biological target: T9, QRFPR mutants (Homo sapiens, UniProt Q96P65, V121A); type: cell-based; details: HEK293, QRFPR V121^3.28A; HEK293, Fluo-4; mean ± S.E.M., n ≥ 3
T9 construct: expressed in transfected cells; host or cells: HEK293, transient transfection by electroporation
Procedure: as §1, §2, §3

QRFPR mutants [10] = biological target: T10, QRFPR mutants (Homo sapiens, UniProt Q96P65, C98A); type: cell-based; details: HEK293, QRFPR C98^2.57A; HEK293, Fluo-4; mean ± S.E.M., n ≥ 3
T10 construct: expressed in transfected cells; host or cells: HEK293, transient transfection by electroporation
Procedure: as §1, §2, §3

QRFPR mutants [11] = biological target: T11, QRFPR mutants (Homo sapiens, UniProt Q96P65, K189A); type: cell-based; details: HEK293, QRFPR K189^ECL2A; HEK293, Fluo-4; mean ± S.E.M., n ≥ 3
T11 construct: expressed in transfected cells; host or cells: HEK293, transient transfection by electroporation
Procedure: as §1, §2, §3

QRFPR mutants [12] = biological target: T12, QRFPR mutants (Homo sapiens, UniProt Q96P65, F289A); type: cell-based
T12 construct: expressed in transfected cells; host or cells: HEK293, transient transfection by electroporation
Procedure: as §1, §2, §3

QRFPR mutants [13] = biological target: T13, QRFPR mutants (Homo sapiens, UniProt Q96P65, C118A); type: cell-based; details: HEK293, QRFPR C118^3.25A; HEK293, Fluo-4; mean ± S.E.M., n ≥ 3
T13 construct: expressed in transfected cells; host or cells: HEK293, transient transfection by electroporation
Procedure: as §1, §2, §3

QRFPR mutants [14] = biological target: T14, QRFPR mutants (Homo sapiens, UniProt Q96P65, H290A); type: cell-based; details: HEK293, QRFPR H290^6.52A; HEK293, Fluo-4; mean ± S.E.M., n ≥ 3
T14 construct: expressed in transfected cells; host or cells: HEK293, transient transfection by electroporation
Procedure: as §1, §2, §3

QRFPR mutants [15] = biological target: T15, QRFPR mutants (Homo sapiens, UniProt Q96P65, Q105A); type: cell-based; details: HEK293, QRFPR Q105^2.63A; HEK293, Fluo-4; mean ± S.E.M., n ≥ 3
T15 construct: expressed in transfected cells; host or cells: HEK293, transient transfection by electroporation
Procedure: as §1, §2, §3

QRFPR mutants [16] = biological target: T16, QRFPR mutants (Homo sapiens, UniProt Q96P65, W286A); type: cell-based; details: HEK293, QRFPR W286^6.48A; HEK293, Fluo-4; mean ± S.E.M., n ≥ 3
T16 construct: expressed in transfected cells; host or cells: HEK293, transient transfection by electroporation
Procedure: as §1, §2, §3

QRFPR mutants [17] = biological target: T17, QRFPR mutants (Homo sapiens, UniProt Q96P65, S126A); type: cell-based; details: HEK293, QRFPR S126^3.33A; HEK293, Fluo-4; mean ± S.E.M., n ≥ 3
T17 construct: expressed in transfected cells; host or cells: HEK293, transient transfection by electroporation
Procedure: as §1, §2, §3

QRFPR mutants [18] = type: cell-based, human
Procedure: as §1, §2, §3

T12 sequence (Q96P65 whole entry F289A): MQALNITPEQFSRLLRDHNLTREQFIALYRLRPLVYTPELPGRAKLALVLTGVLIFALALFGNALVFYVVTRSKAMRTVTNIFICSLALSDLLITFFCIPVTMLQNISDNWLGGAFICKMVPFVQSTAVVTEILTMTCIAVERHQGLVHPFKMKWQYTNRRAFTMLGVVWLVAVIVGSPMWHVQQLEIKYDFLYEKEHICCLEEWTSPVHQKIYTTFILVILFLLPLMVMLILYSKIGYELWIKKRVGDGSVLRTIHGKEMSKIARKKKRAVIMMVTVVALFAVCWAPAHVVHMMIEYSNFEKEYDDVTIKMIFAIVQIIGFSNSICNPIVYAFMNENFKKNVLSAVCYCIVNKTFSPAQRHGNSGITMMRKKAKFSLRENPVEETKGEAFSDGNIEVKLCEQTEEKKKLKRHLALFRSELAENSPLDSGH
T10 sequence (Q96P65 whole entry C98A): as the sequence (Q96P65 whole entry F289A) above, with C98A, A289F counted along it
T15 sequence (Q96P65 whole entry Q105A): as the sequence (Q96P65 whole entry F289A) above, with Q105A, A289F counted along it
T17 sequence (Q96P65 whole entry S126A): as the sequence (Q96P65 whole entry F289A) above, with S126A, A289F counted along it
T5 sequence (Q96P65 whole entry M180A): as the sequence (Q96P65 whole entry F289A) above, with M180A, A289F counted along it
T7 sequence (Q96P65 whole entry T215A): as the sequence (Q96P65 whole entry F289A) above, with T215A, A289F counted along it
T13 sequence (Q96P65 whole entry C118A): as the sequence (Q96P65 whole entry F289A) above, with C118A, A289F counted along it
T16 sequence (Q96P65 whole entry W286A): as the sequence (Q96P65 whole entry F289A) above, with W286A, A289F counted along it
T3 sequence (Q96P65 whole entry D109A): as the sequence (Q96P65 whole entry F289A) above, with D109A, A289F counted along it
T11 sequence (Q96P65 whole entry K189A): as the sequence (Q96P65 whole entry F289A) above, with K189A, A289F counted along it
T1 sequence (Q96P65 whole entry Q211A): as the sequence (Q96P65 whole entry F289A) above, with Q211A, A289F counted along it
T2 sequence (Q96P65 whole entry N110A): as the sequence (Q96P65 whole entry F289A) above, with N110A, A289F counted along it
T4 sequence (Q96P65 whole entry T102A): as the sequence (Q96P65 whole entry F289A) above, with T102A, A289F counted along it
T6 sequence (Q96P65 19-431, stated change not applied): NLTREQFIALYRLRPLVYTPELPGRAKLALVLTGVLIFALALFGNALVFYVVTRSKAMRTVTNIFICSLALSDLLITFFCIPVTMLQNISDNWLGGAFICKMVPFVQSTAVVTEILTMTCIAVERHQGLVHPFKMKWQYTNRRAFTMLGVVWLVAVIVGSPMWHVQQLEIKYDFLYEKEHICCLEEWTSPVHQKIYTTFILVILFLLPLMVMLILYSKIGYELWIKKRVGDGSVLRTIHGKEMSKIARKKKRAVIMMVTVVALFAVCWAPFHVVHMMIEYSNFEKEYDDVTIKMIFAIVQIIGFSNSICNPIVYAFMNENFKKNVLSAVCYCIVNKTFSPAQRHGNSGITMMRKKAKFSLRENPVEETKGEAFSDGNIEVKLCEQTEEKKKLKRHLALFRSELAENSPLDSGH
T8 sequence (Q96P65 whole entry I199A): as the sequence (Q96P65 whole entry F289A) above, with I199A, A289F counted along it
T9 sequence (Q96P65 whole entry V121A): as the sequence (Q96P65 whole entry F289A) above, with V121A, A289F counted along it
T14 sequence (Q96P65 whole entry H290A): as the sequence (Q96P65 whole entry F289A) above, with A289F, H290A counted along it

ASGPLGTLAEELSSYSRRKGGFSFRF-NH2 [26RFa]
Emax (QRFPR mutants [1]): 94.9 ± 1.6%
Emax (QRFPR mutants [2]): 98.6 ± 2.3%
Emax (QRFPR mutants [3]): 111 ± 1.3%
Emax (QRFPR mutants [4]): 94 ± 1.4%
Emax (QRFPR mutants [5]): 93.3 ± 1%
Emax (QRFPR mutants [6]): 53.2 ± 0.75%
Emax (QRFPR mutants [7]): 85.8 ± 3.4%
Emax (QRFPR mutants [8]): 89.7 ± 2.3%
Emax (QRFPR mutants [9]): 106 ± 5.4%
Emax (QRFPR mutants [10]): 48.4 ± 0.88%
Emax (QRFPR mutants [11]): 94.9 ± 1.6%
Emax (QRFPR mutants [12]; HEK293, QRFPR F289^6.51A, HEK293, Fluo-4, mean ± S.E.M., n ≥ 3): 54.4 ± 1.4%
effect of mutation on 26RFa activity (QRFPR mutants [12]; QRFPR F289^6.51 to alanine): dramatic decrease in the activity of 26RFa
Emax (QRFPR mutants [13]): 1.43 ± 0.55%
Emax (QRFPR mutants [14]): 60.4 ± 0.39%
Emax (QRFPR mutants [15]): 83.8 ± 3.1%
Emax (QRFPR mutants [16]): 1.8 ± 0.38%
Emax (QRFPR mutants [17]): 92.3 ± 4.1%
role of Q^3.32 and Q/H^7.39 in activity (QRFPR mutants [18]; 26RFa, QRFPR): critical for the activity
effect of mutation on QRFPR activation (QRFPR mutants [18]; alanine substitution of W111^23.50 and two conserved cysteines (C118^3.25, C201^45.50)): notably hampered QRFPR activation
role of residues in 26RFa-induced receptor activation (QRFPR mutants [18]; residues around Arg25-Phe26-amide except I218^5.42 (E203, Q318, Y214, V129, F289, Q125, C98, F322)): essential for 26RFa-induced receptor activation
